Source: ChEMBL document CHEMBL3769391, “Identification of a new cyathane diterpene that induces mitochondrial and autophagy-dependent apoptosis and shows a potent in vivo anti-colorectal cancer activity” (Eur J Med Chem, 2016)
Active and inactive are the calls of the source. The rule behind the calls is not given here.

Assays:
HCT-116 [1] = assay: Induction of apoptosis in ATG5 knockdown human HCT116 cells assessed as early apoptotic cells at 5 uM after 24 hrs by Annexin V-FITC/propidium iodide staining based flow cytometry (reference value: 1.13%); assay type: functional
HCT-116 [2] = assay: Induction of autophagy in human HCT116 cells assessed as increase in LC3-2 level at 5 uM by Western blot analysis; assay type: functional, cell-based
HCT-116 [3] = assay: Induction of apoptosis in human HCT116 cells assessed as changes in Bcl-X(L) expression at 5 uM after 6 to 24 hrs by Western blot analysis; assay type: functional, cell-based
HCT-116 [4] = assay: Induction of apoptosis in human HCT116 cells assessed as apoptotic cells at 5 uM after 24 hrs by Annexin V-FITC/propidium iodide staining based flow cytometry in presence of caspase inhibitor Z-VAD-FMK; assay type: functional
HCT-116 [5] = assay: Induction of apoptosis in human HCT116 cells assessed as late apoptotic cells at 2.5 uM after 24 hrs by Annexin V-FITC/propidium iodide staining based flow cytometry (reference value: 4.54%); assay type: functional
HCT-116 [6] = assay: Induction of apoptosis in human HCT116 cells assessed as PARP cleavage at 5 uM after 6 to 24 hrs by Western blot analysis; assay type: functional, cell-based
HCT-116 [7] = assay: Induction of apoptosis in human HCT116 cells assessed as changes in Bax expression at 5 uM after 6 to 24 hrs by Western blot analysis; assay type: functional, cell-based
Mus musculus [8] = assay: Hepatotoxicity in immune deficient nude BALB/c mouse xenografted with Bax deficient human HCT116 cells assessed as changes in total protein level at 5 and 10 mg/kg, ip administered every other day for 2 weeks measured during compound dosing; assay type: toxicity, organism-based, HCT-116; conditions: in vivo, 336 h
[9] = Antitumor activity against Bax deficient human HCT116 cells xenografted in immune deficient nude BALB/c mouse assessed as tumor growth inhibition at 10 mg/kg, ip administered every other day for 2 weeks measured after 2 weeks post last dose relative to control; assay type: functional; conditions: HCT-116, ip, 336 h, read-out: TGI
HCT-116 [10] = assay: Induction of apoptosis in human HCT116 cells assessed as increase in BimL expression at 5 uM after 6 to 24 hrs by Western blot analysis; assay type: functional, cell-based
HCT-116 [11] = assay: Induction of apoptosis in human HCT116 cells assessed as caspase activation at 5 uM after 36 hrs by CaspACEFITC-VAD-FMK staining based flow cytometry (reference value: 7.72%); assay type: functional
HCT-116 [12] = assay: Induction of apoptosis in ATG5 scramble human HCT116 cells assessed as early apoptotic cells at 5 uM after 24 hrs by Annexin V-FITC/propidium iodide staining based flow cytometry (reference value: 1.99%); assay type: functional
[13] = Antitumor activity against Bax deficient human HCT116 cells xenografted in immune deficient nude BALB/c mouse assessed as tumor growth inhibition at 5 mg/kg, ip administered every other day for 2 weeks measured after 2 weeks post last dose relative to control; assay type: functional; conditions: HCT-116, ip, 336 h, read-out: TGI
HCT-116 [14] = assay: Induction of apoptosis in Bax deficient human HCT116 cells assessed as early apoptotic cells at 15 uM after 24 hrs by Annexin V-FITC/propidium iodide staining based flow cytometry in presence of DTT (reference value: 0.85%); assay type: functional
HCT-116 [15] = assay: Induction of apoptosis in human HCT116 cells assessed as changes in p53 expression at 5 uM after 6 to 24 hrs by Western blot analysis; assay type: functional, cell-based
HCT-116 [16] = assay: Induction of apoptosis in human HCT116 cells assessed as ATG5 cleavage by Western blot analysis in presence of chloroquine; assay type: functional, cell-based
[17] = Cytotoxicity against Bax deficient human HCT116 cells assessed as reduction in cell viability after 24 hrs by MTT assay; assay type: functional, cell-based; conditions: HCT-116, 24 h
HCT-116 [18] = assay: Induction of apoptosis in Bax deficient human HCT116 cells assessed as late apoptotic cells at 15 uM after 24 hrs by Annexin V-FITC/propidium iodide staining based flow cytometry in presence of DTT (reference value: 1.56%); assay type: functional
HCT-116 [19] = assay: Induction of apoptosis in human HCT116 cells assessed as decrease in Bcl-2 expression at 5 uM after 6 to 24 hrs by Western blot analysis; assay type: functional, cell-based
HCT-116 [20] = assay: Induction of apoptosis in Bax deficient human HCT116 cells assessed as early apoptotic cells at 10 uM after 24 hrs by Annexin V-FITC/propidium iodide staining based flow cytometry (reference value: 1.13%); assay type: functional
HCT-116 [21] = assay: Induction of apoptosis in human HCT116 cells assessed as depolarization of mitochondrial inner transmembrane potential after 24 hrs by TMRE staining based flow cytometry; assay type: functional, cell-based
HCT-116 [22] = assay: Induction of apoptosis in human HCT116 cells assessed as early apoptotic cells at 10 uM after 12 hrs by Annexin V-FITC/propidium iodide staining based flow cytometry (reference value: 1.13%); assay type: functional
HCT-116 [23] = assay: Induction of Bcl-2 expression in human HCT116 cells at 5 uM after 4 to 12 hrs by qRT-PCR method; assay type: functional, cell-based
[24] = target: c-Jun N-terminal kinase, JNK (Homo sapiens) (UniProt P45983+P53779+P45984); assay: Induction of JNK phosphorylation in human HCT116 cells at 5 uM after 4 hrs by Western blot analysis; assay type: cell-based; conditions: HCT-116
HCT-116 [25] = assay: Induction of apoptosis in Bax deficient human HCT116 cells assessed as late apoptotic cells at 20 uM after 24 hrs by Annexin V-FITC/propidium iodide staining based flow cytometry (reference value: 1.5%); assay type: functional
Mus musculus [26] = assay: Hepatotoxicity in immune deficient nude BALB/c mouse xenografted with human HCT116 cells assessed as changes in total protein level in serum at 5 and 10 mg/kg, ip administered every other day for 2 weeks measured during compound dosing; assay type: toxicity, organism-based, HCT-116; conditions: in vivo, 336 h
HCT-116 [27] = assay: Induction of apoptosis in human HCT116 cells assessed as caspase activation at 5 uM by CaspACEFITC-VAD-FMK staining based flow cytometry; assay type: functional, cell-based; conditions: TDE = time-dependent effect
HCT-116 [28] = assay: Induction of apoptosis in human HCT116 cells assessed as early apoptotic cells at 2.5 uM after 24 hrs by Annexin V-FITC/propidium iodide staining based flow cytometry (reference value: 1.06%); assay type: functional
Mus musculus [29] = assay: Toxicity in immune deficient nude BALB/c mouse xenografted with Bax deficient human HCT116 cells assessed as changes in body weight at 5 and 10 mg/kg, ip administered every other day for 2 weeks measured during compound dosing; assay type: organism-based, HCT-116; conditions: in vivo, 336 h
HCT-116 [30] = assay: Induction of apoptosis in human HCT116 cells assessed as early apoptotic cells at 10 uM after 24 hrs by Annexin V-FITC/propidium iodide staining based flow cytometry (reference value: 1.06%); assay type: functional
Mus musculus [31] = assay: Toxicity in immune deficient nude BALB/c mouse xenografted with human HCT116 cells assessed as discomfort behavioral changes at 5 and 10 mg/kg, ip administered every other day for 2 weeks measured during compound dosing; assay type: organism-based, HCT-116; conditions: in vivo, 336 h
HCT-116 [32] = assay: Induction of apoptosis in human HCT116 cells assessed as late apoptotic cells at 10 uM after 12 hrs by Annexin V-FITC/propidium iodide staining based flow cytometry (reference value: 3.37%); assay type: functional
HCT-116 [33] = assay: Induction of apoptosis in human HCT116 cells assessed as early apoptotic cells at 5 uM after 24 hrs by Annexin V-FITC/propidium iodide staining based flow cytometry in presence of NAC (reference value: 2.2%); assay type: functional
HCT-116 [34] = assay: Induction of apoptosis in human HCT116 cells assessed as cytochrome C release from mitochondria to cytoplasm at 5 uM after 12 hrs by immunofluorescence assay; assay type: functional

Which Activity (HCT-116 [1]) does the source give for CO[C@@H]1C(C=O)=CC[C@@H]2C3=C(C(C)C)CC[C@]3(C)CC[C@@]2(C)[C@H]1O here?
Its Activity is 2.36%.

What about the Activity (HCT-116 [2]) of the same molecule?
Its Activity is “Active”.

And the Activity (HCT-116 [3])?
The Activity was “inactive”.

And the Activity (HCT-116 [4])?
Its Activity is 28.81%.

And the Activity (HCT-116 [5])?
The Activity was 7.54%.

And the Activity (HCT-116 [6])?
Its Activity is “Active”.

And the Activity (HCT-116 [7])?
The Activity was “inactive”.

What about the Activity (Mus musculus [8]) of the same molecule?
The Activity was “Non-toxic”.

And the inhibition in vivo at 10 mg/kg [9]?
Its inhibition in vivo at 10 mg/kg is 60.1%.

What about the Activity (HCT-116 [10]) of the same molecule?
The Activity was “Active”.

What about the Activity (HCT-116 [11]) of the same molecule?
The Activity was 93.96%.

What about the Activity (HCT-116 [12]) of the same molecule?
The Activity was 15.2%.

And the inhibition in vivo at 5 mg/kg [13]?
The inhibition in vivo at 5 mg/kg was 25.8%.

What about the Activity (HCT-116 [14]) of the same molecule?
The Activity was 2.67%.

And the Activity (HCT-116 [15])?
The Activity was “inactive”.

And the Activity (HCT-116 [16])?
The Activity was “inactive”.

And the IC50 [17]?
The IC50 was 24.2 µM.

What about the Activity (HCT-116 [18]) of the same molecule?
The Activity was 3.36%.

What about the Activity (HCT-116 [19]) of the same molecule?
The Activity was “Active”.

What about the Activity (HCT-116 [20]) of the same molecule?
The Activity was 44.04%.

And the Activity (HCT-116 [21])?
The Activity was “Dose-dependent effect”.

And the Activity (HCT-116 [22])?
The Activity was 30.19%.

And the Activity (HCT-116 [23])?
The Activity was “Active”.

What about the Activity [24] of the same molecule?
Its Activity is “Active”.

What about the Activity (HCT-116 [25]) of the same molecule?
Its Activity is 32.25%.

And the Activity (Mus musculus [26])?
The Activity was “Non-toxic”.

What about the Activity (HCT-116 [27]) of the same molecule?
Its Activity is “tde”.

And the Activity (HCT-116 [28])?
The Activity was 2.23%.

What about the Activity (Mus musculus [29]) of the same molecule?
The Activity was “Non-toxic”.

What about the Activity (HCT-116 [30]) of the same molecule?
The Activity was 59.5%.

And the Activity (Mus musculus [31])?
Its Activity is “Non-toxic”.

What about the Activity (HCT-116 [32]) of the same molecule?
The Activity was 22.01%.

What about the Activity (HCT-116 [33]) of the same molecule?
Its Activity is 1.35%.

And the Activity (HCT-116 [34])?
The Activity was “Active”.
